In ChEMBL document CHEMBL1147454, “6-Arylamino-7-chloro-quinazoline-5,8-diones as novel cytotoxic and DNA topoisomerase inhibitory agents” (Bioorg Med Chem Lett, 2004) one finds IC50 and inhibition data, which are given here for 18 molecules.

The test system of one assay is Col2. The experiment in a line: In vitro cytotoxicity against human Col2 (colon cancer) cell line. It counts as functional, cell-based.
Assay [1] has as its target T1, DNA topoisomerase II (Homo sapiens, UniProt P11388+Q02880). The experiment in a line: In vitro inhibition of human DNA topoisomerase II activity. It counts as protein assay. The following applies: concentration not given here.
The next assay has as its system SNU-638. As to the kind of experiment: In vitro cytotoxicity against human SNU-638 (stomach cancer) cell line. It counts as functional, cell-based.
The next assay has as its system A549. The experiment in a line: In vitro cytotoxicity against human A549 (lung cancer) cell line. It counts as functional, cell-based.
Assay [2] addresses T2, DNA topoisomerase 1 (Homo sapiens) (UniProt P11387).
T2 sequence (whole entry): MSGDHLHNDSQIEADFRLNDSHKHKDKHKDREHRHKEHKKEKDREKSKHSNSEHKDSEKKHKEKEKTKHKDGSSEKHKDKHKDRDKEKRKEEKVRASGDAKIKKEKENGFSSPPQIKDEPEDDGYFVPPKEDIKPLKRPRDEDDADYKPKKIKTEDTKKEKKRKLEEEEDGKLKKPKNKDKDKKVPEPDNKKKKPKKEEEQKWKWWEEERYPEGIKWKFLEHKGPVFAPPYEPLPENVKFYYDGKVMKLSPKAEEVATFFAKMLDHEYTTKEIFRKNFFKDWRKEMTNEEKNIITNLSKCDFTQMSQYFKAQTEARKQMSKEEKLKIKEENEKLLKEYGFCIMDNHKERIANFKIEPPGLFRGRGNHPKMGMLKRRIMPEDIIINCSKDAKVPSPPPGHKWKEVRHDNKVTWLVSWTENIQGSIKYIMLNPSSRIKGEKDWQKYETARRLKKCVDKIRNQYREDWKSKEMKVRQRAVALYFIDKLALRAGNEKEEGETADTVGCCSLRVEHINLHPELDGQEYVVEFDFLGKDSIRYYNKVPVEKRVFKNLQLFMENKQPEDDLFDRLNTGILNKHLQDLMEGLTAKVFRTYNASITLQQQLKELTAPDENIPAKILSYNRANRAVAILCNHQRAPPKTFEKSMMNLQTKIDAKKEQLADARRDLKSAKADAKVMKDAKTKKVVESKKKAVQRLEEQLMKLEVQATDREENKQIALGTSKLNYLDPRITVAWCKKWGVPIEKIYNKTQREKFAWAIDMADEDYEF
The experiment in a line: In vitro inhibition of human DNA topoisomerase I activity. Set-up: concentration or dose not given beside the values. The following applies: concentration not given here.

Assay [3] has as its target T1, DNA topoisomerase II. The experiment in a line: Inhibitory activity against topo II-mediated decatenation of DNA. It counts as protein assay.
The target in assay [4] is T1, DNA topoisomerase II. The experiment in a line: Inhibitory activity against DNA topoisomerase II. The format is protein assay.

Usually IC50 stands for the midpoint of a concentration-inhibition curve. Usually inhibition stands for how much of the control response was suppressed. On to `O=C1C(Nc2ccccc2)=C(Cl)C(=O)c2ncncc21`, for which the concentration for half-maximal inhibition (IC50) with Col2 came to 1.19 µM; in the assay on SNU-638, 770 nM; in the assay with A549, 3.54 µM. Besides, the figures for the inhibition (against DNA topoisomerase II [1]; in assay [2]) were 41% and 27%, respectively.

`COc1cccc2c1C(=O)c1c(O)c3c(c(O)c1C2=O)C[C@@](O)(C(=O)CO)C[C@@H]3O[C@H]1C[C@H](N)[C@H](O)[C@H](C)O1` [DOXORUBICIN]: the results for the IC50 in the assay with Col2, in the assay with SNU-638 and with A549 were 0.52 µM, 690 nM and 0.3 µM, respectively.

As for `O=C1C(Nc2ccccc2Br)=C(Cl)C(=O)c2ncncc21`, the IC50 in the assay on Col2 was 3.4 µM; against DNA topoisomerase II [3] it was 17.3 µM; with SNU-638, 990 nM; in the assay with A549, 4.47 µM. Moreover, the inhibition on DNA topoisomerase II [1] was 99%; in assay [2], 89%.

`Cc1ccccc1/N=C1/C(=O)c2cncnc2C(O)=C1Cl`: the IC50 stood at 3.77 µM with Col2, 900 nM in the assay with SNU-638 and 3.6 µM in the assay on A549. In addition, the inhibition on DNA topoisomerase II [1] was determined as 6%; in assay [2], 29%.

As to `COc1cc([C@@H]2c3cc4c(cc3[C@@H](O[C@@H]3O[C@@H]5CO[C@@H](C)O[C@H]5[C@H](O)[C@H]3O)[C@H]3COC(=O)[C@H]23)OCO4)cc(OC)c1O`, the inhibition on DNA topoisomerase II [1] turned out to be 48%.

Regarding `Cc1ccc(NC2=C(Cl)C(=O)c3ncncc3C2=O)cc1`, the 50% inhibitory concentration (IC50) with Col2 was 0.87 µM; with SNU-638, 730 nM; with A549, 5.81 µM. The inhibition against DNA topoisomerase II [1] worked out at 1%; in assay [2] it was 12%.

As for `CCc1ccc(NC2=C(Cl)C(=O)c3ncncc3C2=O)cc1`, the values for the IC50 with Col2, with SNU-638 and in the assay on A549 were 0.7 µM, 640 nM and 3.44 µM, respectively. The figures for the inhibition (against DNA topoisomerase II [1]; in assay [2]) were 4% and 88%, respectively.

For `O=C1C(Nc2ccc3c(c2)OCO3)=C(Cl)C(=O)c2ncncc21`, the half-maximal inhibitory concentration (IC50) with Col2 was 0.88 µM; with SNU-638, 550 nM; in the assay on A549, 1.67 µM. Also, the inhibition is 2% on DNA topoisomerase II [1] and 27% in assay [2].

In the case of `O=C1C(Nc2cccc(Cl)c2)=C(Cl)C(=O)c2ncncc21`, the concentration for half-maximal inhibition (IC50) was found to be 3.55 µM in the assay on Col2, 810 nM with SNU-638 and 4.22 µM with A549. For the same molecule, the inhibition against DNA topoisomerase II [1] amounted to 2%; in assay [2], 12%.

`Cc1ccc(/N=C2/C(=O)c3cncnc3C(O)=C2Cl)c(Br)c1`: the IC50 in the assay with Col2 was 3.04 µM; against DNA topoisomerase II [4] it was 40.5 µM; in the assay on SNU-638, 890 nM; in the assay on A549 it was 4.07 µM. In addition, the inhibition (at DNA topoisomerase II [1]; in assay [2]) was 100% throughout.

With `Cc1cccc(NC2=C(Cl)C(=O)c3ncncc3C2=O)c1`, the concentration for half-maximal inhibition (IC50) in the assay with Col2 worked out at 5.67 µM; in the assay with SNU-638, 970 nM; with A549 it was 5.17 µM. The inhibition against DNA topoisomerase II [1] came to 2%; in assay [2], 96%.

Turning to `CCOc1ccccc1/N=C1/C(=O)c2cncnc2C(O)=C1Cl`, the 50% inhibitory concentration (IC50) was found to be 0.73 µM in the assay on Col2, 690 nM in the assay on SNU-638 and 3.28 µM in the assay with A549. Further, the inhibition against DNA topoisomerase II [1] was 1%; in assay [2], 9%.

Consider `CCc1ccccc1/N=C1/C(=O)c2cncnc2C(O)=C1Cl`, for which the results for the IC50 in the assay on Col2, with SNU-638 and with A549 were 4.37 µM, 700 nM and 4.65 µM, respectively. Besides, the inhibition against DNA topoisomerase II [1] was 82%; in assay [2], 20%.

With `COc1ccc(/N=C2/C(=O)c3cncnc3C(O)=C2Cl)c(OC)c1`, the IC50 with Col2 turned out to be 1.07 µM; with SNU-638, 610 nM; with A549, 2.02 µM. The figures for the inhibition (on DNA topoisomerase II [1]; in assay [2]) were 20% and 35%, respectively.

`O=C1C(Nc2ccc(Br)cc2)=C(Cl)C(=O)c2ncncc21`: the IC50 came to 3.02 µM with Col2, 15.1 µM against DNA topoisomerase II [3], 690 nM in the assay on SNU-638 and 4.31 µM in the assay with A549. Further, the inhibition on DNA topoisomerase II [1] worked out at 94%; in assay [2], 58%.

For `O=C1C(Nc2cccc(Br)c2)=C(Cl)C(=O)c2ncncc21`, the IC50 was determined as 5.07 µM in the assay with Col2, 1180 nM with SNU-638 and 3.68 µM with A549. The inhibition at DNA topoisomerase II [1] was 2%; in assay [2], 9%.

Take `Cc1ccc(NC2=C(Cl)C(=O)c3ncncc3C2=O)cc1C`: the values for the half-maximal inhibitory concentration (IC50) in the assay with Col2, in the assay on SNU-638 and with A549 were 3.73 µM, 990 nM and 4.49 µM, respectively. The inhibition was determined as 20% against DNA topoisomerase II [1] and 100% in assay [2].

On to `Cc1c2ccncc2c(C)c2c1[nH]c1ccccc12` [ELLIPTECINE], for which the 50% inhibitory concentration (IC50) with Col2 was determined as 1.22 µM; in the assay with SNU-638, 2000 nM; in the assay on A549, 1.22 µM.
